Source: patent US9939427B2, “Method for evaluating the scent performance of perfumes or perfume mixtures” (Symrise AG, priority 2013, dated 2018)
“Also recorded” adds a separate entry of the source.

Tests used:
Format in all cases: cell-based
[1] = target: T1, OR2L8 (Homo sapiens, UniProt Q8NGY9); assay: Ca-imaging of OR2L8-transfected HEK293 cells; design: key to OR2L8 responded to odorant: ▪: 18 olfactory receptors responded to 32 odorants in related with specific anosmia
T1 construct: specific primers, which amplify the complete open reading frame; expressed in transfected cells; host or cells: HEK293
T1 sequence (Q8NGY9 1-312): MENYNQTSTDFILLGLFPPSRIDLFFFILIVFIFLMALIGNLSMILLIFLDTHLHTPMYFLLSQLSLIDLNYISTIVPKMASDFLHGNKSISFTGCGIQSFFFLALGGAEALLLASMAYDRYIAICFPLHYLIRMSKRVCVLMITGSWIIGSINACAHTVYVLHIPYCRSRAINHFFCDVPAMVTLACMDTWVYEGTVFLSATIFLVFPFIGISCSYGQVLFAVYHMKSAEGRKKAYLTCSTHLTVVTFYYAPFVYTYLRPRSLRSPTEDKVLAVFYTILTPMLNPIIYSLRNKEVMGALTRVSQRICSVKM
Protocol: (§1) HEK293 cells were cultivated in Petri dishes (Ø35 mm) as previously described (Benbernou et al. 2007). We grow up HEK293 cells in culture medium containing standard DMEM with 10% heat-inactivated fetal bovine serum, 2 mM L-glutamine, 100 units/ml penicillin, and 100 units/ml streptomycin in a humidified atmosphere (37° C., 5% CO2). After 2-3 days, the transfection process was carried out, whereby the cell culture was 70-80% confluent. The calciumphosphate method was applied to transfect DNA plasmid transiently in HEK293 cells in case of Ca-imaging method.
(§2) Calcium cations and phosphate anions created crystal precipitations coupled with DNA which could invade into the cells through endocytosis. Cells were transiently transfected with plasmid DNA which consists of pCI expression vector and PCR-amplified full-length cDNA of olfactory receptors candidates, and also Gα15, RTP1, Myr-Ric8A, HSC70, and m-Cherry as cofactors. The precipitation could be created after 15-20 min, with dropping the transfection solution on HEK293 cells. Before measuring by Ca-imaging cells were incubated 48-60 hours at 370 C, 5% CO2. Cationic liposome-mediated transfection method was applied to transfect DNA plasmid transiently in HANA3A cells in case of CRE-Luciferase and CRE-SEAP assays.
Calcium imaging of the transfected HEK293 cells was done by using chambers determinate an inverted microscope (Olympus; IX70) using a 10× objective (CPIanFL N Olympus). Fluorescence emission was determined every 4 s by using a CCD camera (Charge Coupled Device, C9100 Hamamatsu). The capillary tube which was responsible to supply odorants was generated closely above the cells. The columns filled with odorants, DMSO and ATP. Odorants were manually monitored to drop each 4-5 s to transfected cells. Solutions with drop wise form spread on HEK293 cells in 35 mm dishes.
In experiments, Fura-2 Acetoxymethylester (Fura-2/AM) was applied. The non-polar Fura2/AM is fluorescent but not yet calcium-sensitive. Once diffuses into cell plasma, Fura-2/AM is hydrolyzed to Fura-2 which is calcium-sensitive and functions as Ca2+ chelator. Regardless of the presence of calcium, Fura-2 emits at the wavelength of 510 nm. Once Fura-2 binds to free intracellular Ca2+ in cell plasma, its ratio of excitation at wavelengths of 340 nm and 380 nm is changed and correlated to the amount of intracellular Ca2+. According to this feature, the analysis of 340/380 nm excitation ratio for Fura-2 allows to quantify intracellular calcium levels.
In preparation for Ca-imaging measurements, transfected HEK293 cells were added 3 it Fura2/AM (3 μM) and incubated 30-45 min at 370 C, 5% CO2. After this step, experiments were carried out in a dark condition (Fura-2 is light-sensitive). After the incubation, medium of cell culture was replaced with 2 ml Ringer's solution.
Odorants were freshly prepared with DMSO as 1 M stocks solutions. Six mixtures (200 μM each chemical) were applied to cells sequentially (20 s each mixture/30 s Ringer). Those ORs tested with single odorants that had generated a response to odorant mixture group previously. Odorants were prepared in 100-200 μM concentration.
Ringer's solution was used for washing cells between measuring by two different odorants. Positive response was determined by the timing of the response, the strength of the response (more than twofold higher than the noise amplitude of the baseline), and the shape of the response curve (sharp rise in curve with gradual recovery). The typical shape of response curves was established by observing responses to repeated stimulation with 200 μM of odorants. After testing with single odorants at 100 μM, stimulating odorants were often retested at 200 μM concentrations. To confirm the result of every receptor that produced a significant response curves, the experiment was repeated for twelve times. Finally, cells were exposed to ATP (0.25 mM) which could activate P2Y receptor channel and induce Ca2+ influx into cells. […]

[2] = target: T2, OR4K5 (Homo sapiens, UniProt Q8NGD3); assay: Ca-imaging of OR4K5-transfected HEK293 cells; design: key to OR4K5 responded to odorant: ▪: 18 olfactory receptors responded to 32 odorants in related with specific anosmia
T2 construct: specific primers, which amplify the complete open reading frame; expressed in transfected cells; host or cells: HEK293
T2 sequence (Q8NGD3 1-323): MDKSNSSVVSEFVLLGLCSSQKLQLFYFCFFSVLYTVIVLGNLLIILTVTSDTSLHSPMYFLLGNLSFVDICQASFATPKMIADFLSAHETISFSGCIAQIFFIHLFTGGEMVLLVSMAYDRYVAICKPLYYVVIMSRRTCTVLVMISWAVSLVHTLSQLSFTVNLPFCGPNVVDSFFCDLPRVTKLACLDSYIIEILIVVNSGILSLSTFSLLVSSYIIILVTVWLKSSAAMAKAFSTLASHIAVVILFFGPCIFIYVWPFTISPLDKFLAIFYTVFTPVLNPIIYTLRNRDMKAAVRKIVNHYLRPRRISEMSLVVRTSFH
Protocol: as §1
as §2, with “Cationic liposome-mediated transfection method was applied to transfect DNA plasmid transiently in HANA3A cells in case of CRE-Luciferase and CRE-SEAP assays.” left out
Calcium imaging of the transfected HEK293 cells was done by using chambers determinate an inverted microscope (Olympus; IX70) using a 10× objective (CPIanFL N Olympus). Fluorescence emission was determined every 4 s by using a CCD camera (Charge Coupled Device, C9100 Hamamatsu). […] Odorants were manually monitored to drop each 4-5 s to transfected cells. […]
In experiments, Fura-2 Acetoxymethylester (Fura-2/AM) was applied. […] According to this feature, the analysis of 340/380 nm excitation ratio for Fura-2 allows to quantify intracellular calcium levels. […]
Ringer's solution was used for washing cells between measuring by two different odorants. Positive response was determined by the timing of the response, the strength of the response (more than twofold higher than the noise amplitude of the baseline), and the shape of the response curve (sharp rise in curve with gradual recovery). […]

[3] = tested on: HEK293 cells transfected with all cofactors and pCI plasmids without ORs; assay: Ca-imaging of control HEK293 cells without OR; details: odorant 200 μM, three times of measuring (Table 4, FIG. 5)
Summary of the method: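 HEK293 cells transfected by calcium phosphate with empty pCI plus Gα15, RTP1, Myr-Ric8A, HSC70 and mCherry, incubated 48–60 h, then loaded with 3 µM Fura-2/AM for 30–45 min. Odorants in Ringer's applied as mixtures at 200 µM each or singly at 100–200 µM, with 0.25 mM ATP at the end. Ca2+ followed as 340/380 nm ratio every 4 s; responses as ΔF/F0, judged by timing, amplitude above twice baseline noise and curve shape.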

[4] = target: T1, OR2L8; assay: CRE-luciferase assay, OR2L8 in HANA3A cells; details: 50 μM, 100 μM and 150 μM; normalized to DMSO
Protocol: as §2, with “assays. […]” for “assays.”
ORs responded by Ca-imaging with seven separate odorant mixtures formed from 66 odorants. […] Transfected HANA3A cells on poly-D-lysine-coated 96 well plates are ready for stimulation after 24 h. […] Measuring by plate reader (Luminometer). • 6. […] Measuring by plate reader (Luminometer). • 8. According to manufacturer's protocols for measuring luciferase and renilla activities, calculate normalized luciferase activity with using the formula (Ln-Lmin)/(Lmax-Lmin), where Ln is the luminescence of firefly in response to the odorant, L min is the minimum luciferase value on a plate, and L max is the maximum luciferase value on plate. […]

## Ysamber K [Yasamber K]
[1]; Ca-imaging, HEK293 cells, individual odorant 200 μM, significant response p<0.05
  OR2L8 responded to odorant: ▪
[1]; Ca-imaging, single odorants 200 μM
  Response of OR2L8 to odorant, in words: Ca2+ concentration increased; also recorded: detected
[1]; odorant 200 μM, approximately 2000 transfected cells in three times of measuring (Table 4, FIG. 5)
  Number of cell responses, Experiment (OR2L8): 10
[2]; HEK293 cells, individual odorant 200 μM, significant response p<0.05
  OR4K5 responded to odorant: ▪
[2]; single odorants 200 μM
  Response of OR4K5 to odorant, in words: detected
[3]
  Number of cell responses, Control: 2
[4]
  CRE-luciferase (cAMP assay) response of OR2L8: weak response
